The values that follow come from patent US20250172566A1, “SACCHARIDE SENSING SYSTEMS” (CARBOMETRICS LIMITED, priority 2022, published 2025).

A short description of assay [1]: Fluorescent hydrogel phase glucose responsive assay (10 mM PBS, pH 7.4, 310 K).
Assay [2] in a line: Fluorescent solution phase glucose responsive assay (pH 7.4, 298 K). As for the experimental part:
Fluorescence spectroscopy was performed on either a HORIBA Duetta or BMG Labtech CLARIOstar plus plate reader. Emission spectra were obtained using the appropriate excitation wavelength and at a temperature of either 298 or 310 K and at pH 7.4 unless otherwise stated. Data collection and analysis were performed using EzSpec software by HORIBA or CLARIOstar MARS software by BMG Labtech. Further analysis and processing were performed in Microsoft Excel.
A solution of GBM and FIM at the required concentrations were created in the appropriate media. The emission spectrum of the assay was then acquired by exciting at the designated excitation wavelength to obtain the baseline emission intensity for the assay. Aliquots of 2 M D-glucose (in the same media) were then added to give the required final glucose concentrations (e.g. 15 μL of 2 M D-glucose in 3 mL gives a final D-glucose concentration of 10 mM) and the assay allowed to reach equilibration. The emission spectra were collected after each addition of D-glucose and compared to the original baseline emission, monitoring at the typical emission maximum (Emmax), and the percentage increase or decrease recorded. Emission spectra acquired on either a Horiba Duetta fluorometer or Clariostar plus plate reader.
The glucose responsive fluorescence emission for different combinations of glucose binding molecules (GBM) and fluorescent inhibitor molecules (FIM) at various concentrations and in various media was tested as described above. All results obtained at pH 7.4 and 298 K unless otherwise stated.
All results obtained at pH 7.4 and 298 K unless otherwise stated.
Table 4 provides the composition of the assay media used as the code assigned to each media as used in Tables 1 to 3.

The nature of assay [3]: Affinity electrochemistry - cyclic voltammetry glucose responsive assay (10 mM PBS, pH 7.4, 298 K). The following applies: for Applied potential / Current response: FIM 0.5 mM, reduction process. As for the experimental part: Affinity electrochemistry measurements were made using a Metrohm Autolab PGSTAT101 potentiostat with a BIDSC-FET interface and screen-printed electrodes DRP-200BT. Data collection and analysis were performed using Nova software by Metrohm Autolab. Further analysis and processing were performed in Microsoft Excel. Measurements obtained at 298 K and at pH 7.4 unless otherwise stated.
Separate samples containing a mixture of GBM, FIM and D-glucose at various concentrations in 10 mM PBS were prepared. 50 μL of each sample was pipetted onto the surface of the screen-printed electrode and the cyclic voltammogram acquired using the CV staircase protocol within the Nova software, using the following settings: Start potential at −0.4 V, upper vertex potential at 0.6 V, lower vertex potential at −0.4 V, stop potential at −0.39756 V, number of scans=3, scan rate at 0.1 V/s and Step at 0.00244 V. The data for each voltammogram was exported into Microsoft excel, processed and compared to give the glucose responsive electrochemical results.
Changes in applied potential and current response were monitored using the reduction process observed during the cyclic voltammogram. Measurements obtained at 298 K and pH 7.4 in 10 mM PBS medium.

Setting [4] is: 20 mM D-glucose, GBM30 100 uM, FIM 10 uM, Ex 480/Emmax 520 nm, hydrogel H (amino azide dextran/PEG).

For `O=C(CNC(=O)[C@H](Cc1cn(CCOCCOCCOCCOc2ccc(CCO[C@@H]3O[C@H](CO)[C@@H](O)[C@H](O)[C@H]3O)cc2)nn1)NC(=O)OC[C@@H]1[C@@H]2CCC#CCC[C@@H]21)Nc1ccc2c(c1)C(=O)OC21c2ccc(O)cc2Oc2cc(O)ccc21` [FIM17], the “Change in Emmax for FIM at a particular D-glucose concentration” value (“Change in Emmax for FIM” below) in assay [1] (setting [4]) is 120%; in assay [1] (20 mM D-glucose, GBM39 50 uM, FIM 2 uM, Ex 470/Emmax 530 nm, hydrogel D (azido PEG star polymer)), 70%; in assay [1] (50 mM D-glucose, GBM39 50 uM, FIM 2 uM, Ex 470/Emmax 530 nm, hydrogel D (azido PEG star polymer)), 175%; in assay [1] (60 mM D-glucose, GBM39 50 uM, FIM 2 uM, Ex 470/Emmax 530 nm, hydrogel D (azido PEG star polymer)), 215%; in assay [1] (80 mM D-glucose, GBM39 50 uM, FIM 2 uM, Ex 470/Emmax 530 nm, hydrogel D (azido PEG star polymer)), 295%; in assay [1] (100 mM D-glucose, GBM39 50 uM, FIM 2 uM, Ex 470/Emmax 530 nm, hydrogel D (azido PEG star polymer)), 380%.
As for `C#CCCC(=O)N[C@@H](CCCCNC(=O)Cn1cc(CNC(=O)c2ccc3c(c2)C(=O)OC32c3ccc(O)cc3Oc3cc(O)ccc32)nn1)C(=O)NCCOCCOCCOCCOCc1cn(CCO[C@@H]2O[C@H](CO)[C@@H](O)[C@H](O)[C@H]2O)nn1` [FIM66], the “Change in Emmax for FIM” value in assay [1] (setting [4]) was found to be 140%; in assay [2] (5 mM D-glucose, GBM15 50 uM, FIM 5 uM, Ex 470/Emmax 520 nm, medium B (10 mM PBS)), 250%; in assay [2] (10 mM D-glucose, GBM15 50 uM, FIM 5 uM, Ex 470/Emmax 520 nm, medium B (10 mM PBS)), 255%; in assay [2] (20 mM D-glucose, GBM15 50 uM, FIM 5 uM, Ex 470/Emmax 520 nm, medium B (10 mM PBS)), 260%.
Consider `C#CCCC(=O)NCCCC[C@H](NC(=O)[c-]1cccc1)C(=O)NCCOCCOCCOCCn1cc(-c2ccc(CCO[C@@H]3O[C@H](CO)[C@@H](O)[C@H](O)[C@H]3O)cc2)nn1.[Fe+2].c1cc[cH-]c1` [FIM38], for which the Applied potential worked out at 0.327 V in assay [3] (0 mM D-glucose, GBM 0 mM); 0.280 V in assay [3] (0 mM D-glucose, GBM15 1 mM); 0.285 V in assay [3] (1 mM D-glucose, GBM15 1 mM); 0.300 V in assay [3] (2 mM D-glucose, GBM15 1 mM); 0.306 V in assay [3] (3 mM D-glucose, GBM15 1 mM); 0.310 V in assay [3] (4 mM D-glucose, GBM15 1 mM). This compound came in with an Applied potential in assay [3] (5 mM D-glucose, GBM15 1 mM) of 0.310 V. Moreover, the Current response in assay [3] (0 mM D-glucose, GBM 0 mM) is on record as −4.25 ×10^−6 A; in assay [3] (0 mM D-glucose, GBM15 1 mM), −3.1 ×10^−6 A; in assay [3] (1 mM D-glucose, GBM15 1 mM), −3.75 ×10^−6 A; in assay [3] (2 mM D-glucose, GBM15 1 mM), −4.25 ×10^−6 A; in assay [3] (3 mM D-glucose, GBM15 1 mM), −4.4 ×10^−6 A; in assay [3] (4 mM D-glucose, GBM15 1 mM), −4.5 ×10^−6 A. In addition, the Current response in assay [3] (5 mM D-glucose, GBM15 1 mM) is −4.5 ×10^−6 A. Further, in assay [3] (GBM15 1 mM and FIM38 0.5 mM in 10 mM PBS, addition of D-glucose), the “Glucose responsive cyclic voltammetry (FIG. 10)” value was “shows a shift in both applied potential (V) and current response (A)”.
As for `C#CCCC(=O)N[C@@H](Cc1cn(CCOCCOCCOCCOc2ccc(CCO[C@@H]3O[C@H](CO)[C@@H](O)[C@H](O)[C@H]3O)cc2)nn1)C(=O)NCC(=O)Nc1ccc2c(c1)C(=O)OC21c2ccc(O)cc2Oc2cc(O)ccc21` [FIM1], the “Change in Emmax for FIM” value was determined as 10% in assay [1] (20 mM D-glucose, GBM1 10 uM, FIM 1 uM, Ex 470/Emmax 530 nm, hydrogel D (azido PEG star polymer)) and 20% in assay [1] (50 mM D-glucose, GBM1 10 uM, FIM 1 uM, Ex 470/Emmax 530 nm, hydrogel D (azido PEG star polymer)). In addition, the “Reversibility of emission on cycling (FIG. 5)” value in assay [1] (hydrogel D with GBM1 50 μM and FIM1 5 μM pre-incorporated, cycling 10 mM PBS / 20 mM D-glucose, 310 K, pH 7.4) is “shows reversibility of hydrogel”.
As for `CC(C)(C)OC(=O)N[C@@H](Cc1cn(CCCC[C@@H](C(=O)NCC(CO[C@@H]2O[C@H](CO)[C@@H](O)[C@H](O)[C@H]2O)c2ccccc2)[N+](C)(C)C)nn1)C(=O)NCCOCCOCCn1cc(CNC(=O)c2ccc3c(c2)C(=O)OC32c3ccc(N)c(S(=O)(=O)[O-])c3Oc3c2ccc(N)c3S(=O)(=O)O)nn1` (some centres unmarked) [FIM50], the “Change in Emmax for FIM” value turned out to be 140% in assay [2] (5 mM D-glucose, GBM7 50 μM, FIM 2 μM, medium B, Ex 470 nm, Emmax 520 nm); 50% in assay [2] (5 mM D-glucose, GBM15 100 μM, FIM 2 μM, medium B, Ex 470 nm, Emmax 520 nm); 180% in assay [2] (10 mM D-glucose, GBM7 50 μM, FIM 2 μM, medium B, Ex 470 nm, Emmax 520 nm); 70% in assay [2] (10 mM D-glucose, GBM15 100 μM, FIM 2 μM, medium B, Ex 470 nm, Emmax 520 nm); 200% in assay [2] (20 mM D-glucose, GBM7 50 μM, FIM 2 μM, medium B, Ex 470 nm, Emmax 520 nm); 90% in assay [2] (20 mM D-glucose, GBM15 100 μM, FIM 2 μM, medium B, Ex 470 nm, Emmax 520 nm).
With `C#CCN(C)c1ccc2nc3ccc(N(C)Cc4cn(CC(CO[C@H]5O[C@@H](CO)[C@H](O)[C@@H](O)[C@@H]5O)c5ccccc5)nn4)cc3[s+]c2c1` (some centres unmarked) [FIM52], the Applied potential in assay [3] (1 mM D-glucose, GBM15 1 mM) is listed as −0.287 V; in assay [3] (2 mM D-glucose, GBM15 1 mM), −0.258 V; in assay [3] (10 mM D-glucose, GBM15 1 mM), −0.239 V; in assay [3] (20 mM D-glucose, GBM15 1 mM), −0.231 V; in assay [3] (50 mM D-glucose, GBM15 1 mM) it was −0.231 V. Also, the Current response in assay [3] (1 mM D-glucose, GBM15 1 mM) is −9.11 ×10^−6 A; in assay [3] (2 mM D-glucose, GBM15 1 mM), −9.52 ×10^−6 A; in assay [3] (10 mM D-glucose, GBM15 1 mM), −10.0 ×10^−6 A; in assay [3] (20 mM D-glucose, GBM15 1 mM), −11.1 ×10^−6 A; in assay [3] (50 mM D-glucose, GBM15 1 mM) it was −11.4 ×10^−6 A.
